Data: PubChem BioAssay AID1963854 (Molecular Pharmacology Branch, DTP, NCI, 2024)
pIC50: −log10 of the molar value. “And” between values parts separate entries of the source, which are not always exact repeats. Equal entries are not always repeated.

System: 186277-243-T-J2-PDC complex spheroid viability
Assay: Anticancer human tumor 186277-243-T-J2-PDC patient-derived colon adenocarcinoma cell line growth inhibition [POLQ]
Details: for viability, T/C: stronger effect = lower value
Procedure: Multicellular complex tumor spheroid response to Polymerase (POL) inhibitors (novobiocin, ART-558, RP6685) in combination with a variety of drugs and investigational agents in selected tumor cell lines
The POL inhibitors (novobiocin, ART-558, and RP6685) were evaluated both individually and in combination with standard of care and investigational anticancer small molecules within a complex spheroid model of solid tumors. . Complex spheroids include a stromal component modeled by human endothelial cells (HUVEC) and fibroblasts modeled by human mesenchymal stem cells (MSCs). The concentration ranges selected for each drug and investigational agent were based upon clinically achievable concentrations if the clinical Cmax of the agent was known.
Compounds. The drugs and investigational agents: novobiocin (NSC847541), ART-558 (NSC835418), RP-6685 (NSC848927), peposertib (NSC802822), ceralasertib (NSC780249), elimusertib (NSC800525), camonsertib (NSC841442), AZD-1390 (NSC803789), olaparib (NSC753686), talazoparib (NSC767125), rucaparib (NSC756644), sotorasib (NSC818433), MRTX-1133 (NSC836407), SN-38 (NSC673596), topotecan (NSC609699), epotoside (NSC141540), doxorubicin (NSC123127), gemcitabine (NSC613327), 5-fluorouracil (NSC19893), paclitaxel (NSC125973), vemurafenib (NSC761431), MSA-2 (NSC828583), SN-011 (NSC837082), adavosertib (NSC754352), prexasertib (NSC758257), carboplatin (NSC241240) and oxaliplatin (NSC266046), were obtained from the National Cancer Institute (NCI) Developmental Therapeutics Program Chemical Repository (21). The FDA-approved anticancer drug set is available from the Developmental Therapeutics Program at https://dtp.cancer.gov/organization/dscb/obtaining/. […] The stock solutions were prepared in dimethyl sulfoxide (DMSO, Sigma-Aldrich, St. Louis, MO, cat. D2650), except for the platinum compounds which were prepared in saline (Quality Biological, Gaithersburg, MD, cat. 114-055-101), at 800-fold the tested concentration and stored at -70 degrees C prior to their use. All drugs and investigational agents were tested over a range starting from a high concentration at or near the clinical Cmax and decreasing in half-log increments. If the clinical Cmax for an agent had not been determined, the highest concentration tested was 10 microM, except for SN-38, which was tested at a high concentration of 1 microM.
Cell Culture. All cells were maintained in an incubator at 37 degrees C and 5% CO2 with 95% humidity. The PDC lines were cultured according to standard operating procedures established by the NCI PDMR (https://pdmr.cancer.gov). Table 3 of the manuscript, lists the cell lines along with the number of the three cell types plated to form the mct-spheroids and media for tumor cell growth. After thawing, all PDC lines, except 997537-175-T-J1-PDC and 415267-285-R-J2-PDC, were cultured in Matrigel-coated flasks prepared with a working solution of 1X Ham's F-12 nutrient mix, without supplementation (Thermo Fisher Scientific, cat. 11765054), 100 U/mL penicillin-streptomycin (Thermo Fisher Scientific, cat. 15140122), and 2.5% Matrigel (Corning Inc., Corning, NY, cat. 354248) for the first three passages. The two PDC lines 997537-175-T-J1-PDC and 415267-285-R-J2-PDC were cultured on uncoated flasks. The 857933-349-R-J2-PDC line was cultured in 6C/Colon 1B media containing advanced DMEM/F-12 (Thermo Fisher Scientific, cat. 12634028), 10 mM HEPES (Thermo Fisher Scientific, cat. 15630080), 1X GlutaMAX supplement (Thermo Fisher Scientific, cat. 35050061), 0.1 mg/mL primocin (InvivoGen, San Diego, CA, cat. ant-pm-2), 10% defined fetal bovine serum, heat inactivated (HyClone Laboratories Inc., Logan, UT, cat. SH30070.03HI), 50% L-WRN conditioned media (ATCC, cat. CRL-3276), 1.25 mM N-Acetyl-L-cysteine (Sigma-Aldrich, cat. A9165), 10 mM nicotinamide (Sigma-Aldrich, cat. N0636), 1X B-27 supplement (Thermo Fisher Scientific, cat. 17504044), 1X N-2 supplement (Thermo Fisher Scientific, cat. […]

[1] = compound alone, run of 10/31/2023
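Further: spheroids exposed to compounds for seven days.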
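Wherever viability, T/C is given: 100% = DMSO vehicle control viability.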

COC1C(OC(N)=O)C(O)C(Oc2ccc3c(O)c(NC(=O)c4ccc(O)c(CC=C(C)C)c4)c(=O)oc3c2C)OC1(C)C (configuration not stated)
viability, T/C (compound 0.0316 µM): 99.1% [middle of 13 runs] | viability, T/C (compound 0.1 µM): 97.7% [middle of 13 runs] | viability, T/C (compound 0.316 µM): 97.7% [middle of 13 runs] | viability, T/C (compound 3.16 µM): 103% [middle of 13 runs] | viability, T/C (compound 10 µM): 92.6% [middle of 13 runs] | pIC50 [1]: < 5.00

CC[C@@]1(O)C(=O)OCc2c1cc1n(c2=O)Cc2cc3c(CN(C)C)c(O)ccc3nc2-1
viability, T/C (compound 0.000316 µM): 96.6% and 87.7% and 89.5% | viability, T/C (compound 0.001 µM): 91.4% and 93.5% and 116% | viability, T/C (compound 0.00316 µM): 112% and 111% and 129% | viability, T/C (compound 0.01 µM): 119% and 125% and 112% | viability, T/C (compound 0.0316 µM): 71.8% and 125% and 61.7% | viability, T/C (compound 0.1 µM): 48.8% and 88.5% and 38.6% | pIC50 (curve of compound): 7.03 and < 7.00 and 7.25

CCCS(=O)(=O)Nc1ccc(F)c(C(=O)c2c[nH]c3ncc(-c4ccc(Cl)cc4)cc23)c1F
viability, T/C (compound 0.0316 µM): 93.5% and 97.3% and 96.7% | viability, T/C (compound 0.1 µM): 80.9% and 85.4% and 97.5% | viability, T/C (compound 0.316 µM): 92.2% and 94.7% and 93% | viability, T/C (compound 1 µM): 90.7% and 79.6% and 82.2% | viability, T/C (compound 3.16 µM): 82.9% and 100% and 89.3% | viability, T/C (compound 10 µM): 64.4% and 59.1% and 42.5% | pIC50 (curve of compound): < 5.00 and 5.08

C=CC(=O)N1CCN(c2nc(=O)n(-c3c(C)ccnc3C(C)C)c3nc(-c4c(O)cccc4F)c(F)cc23)C(C)C1 (configuration not stated)
viability, T/C (compound 0.0316 µM): 99.7% and 104% and 101% | viability, T/C (compound 0.1 µM): 93.3% and 94.9% and 105% | viability, T/C (compound 0.316 µM): 97.6% and 89.5% and 103% | viability, T/C (compound 1 µM): 96.6% and 85.6% and 99% | viability, T/C (compound 3.16 µM): 101% and 104% and 109% | viability, T/C (compound 10 µM): 103% and 95% and 93.3% | pIC50 (curve of compound): < 5.00

COc1cc2cc(C(=O)CCC(=O)O)sc2cc1OC
viability, T/C (compound 0.0316 µM): 92.9% and 94% and 94.8% | viability, T/C (compound 0.1 µM): 92.5% and 101% and 99.4% | viability, T/C (compound 0.316 µM): 100% and 88% and 107% | viability, T/C (compound 1 µM): 111% and 86% and 87.3% | viability, T/C (compound 3.16 µM): 94.3% and 96.3% and 101% | viability, T/C (compound 10 µM): 94.8% and 95.2% and 101% | pIC50 (curve of compound): < 5.00

Cc1cccc(N(C)C(=O)C2C(O)CCN2c2nc(C)cc(C(F)(F)F)c2C#N)c1 (configuration not stated)
viability, T/C (compound 0.0316 µM): 107% [middle of 13 runs] | viability, T/C (compound 0.1 µM): 102% [middle of 13 runs] | viability, T/C (compound 0.316 µM): 99.1% [middle of 13 runs] | viability, T/C (compound 1 µM): 97.2% [middle of 13 runs] | viability, T/C (compound 3.16 µM): 95.9% [middle of 13 runs] | viability, T/C (compound 10 µM): 92.7% [middle of 13 runs] | pIC50 [1]: < 5.00 | pIC50 (compound alone, run of 11/06/2023): < 5.00
